Test results: PubChem BioAssay (NCI)
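The compound was tested at five concentrations on cells cultured in 96-well plates, with a 48-hour exposure period. TGI denotes the concentration required for complete inhibition of growth.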

Experiments:
Assay in all cases: NCI anticancer screen, dose series, 48 h
OVCAR-5 ovarian = test system: OVCAR-5 ovarian
SNB-78 CNS = test system: SNB-78 CNS
CCRF-CEM leukemia = test system: CCRF-CEM leukemia
M19-MEL melanoma = test system: M19-MEL melanoma
SF-295 CNS = test system: SF-295 CNS
SNB-19 CNS = test system: SNB-19 CNS
MALME-3M melanoma = test system: MALME-3M melanoma
NCI-H522 lung = test system: NCI-H522 lung
OVCAR-4 ovarian = test system: OVCAR-4 ovarian
M14 melanoma = test system: M14 melanoma
IGROV1 ovarian = test system: IGROV1 ovarian
ACHN renal = test system: ACHN renal
OVCAR-3 ovarian = test system: OVCAR-3 ovarian
SF-268 CNS = test system: SF-268 CNS
RXF-631 renal = test system: RXF-631 renal
SK-MEL-5 melanoma = test system: SK-MEL-5 melanoma
RXF 393 renal = test system: RXF 393 renal
HOP-18 NSCLC = test system: HOP-18 NSCLC
SK-MEL-28 melanoma = test system: SK-MEL-28 melanoma
MOLT-4 leukemia = test system: MOLT-4 leukemia
NCI-H23 lung = test system: NCI-H23 lung
LXFL 529 NSCLC = test system: LXFL 529 NSCLC
COLO 205 colon = test system: COLO 205 colon
SR leukemia = test system: SR leukemia
786-0 renal = test system: 786-0 renal
TK-10 renal = test system: TK-10 renal
SF-539 CNS = test system: SF-539 CNS
KM12 colon = test system: KM12 colon
OVCAR-8 ovarian = test system: OVCAR-8 ovarian
DLD-1 colon = test system: DLD-1 colon
U251 CNS = test system: U251 CNS
SN12C renal = test system: SN12C renal
NCI-H460 lung = test system: NCI-H460 lung
UACC-257 melanoma = test system: UACC-257 melanoma
DMS 114 small cell lung = test system: DMS 114 small cell lung
HOP-92 NSCLC = test system: HOP-92 NSCLC
XF 498 CNS = test system: XF 498 CNS
SNB-75 CNS = test system: SNB-75 CNS
A549 NSCLC = test system: A549 NSCLC
DMS 273 small cell lung = test system: DMS 273 small cell lung
HOP-62 NSCLC = test system: HOP-62 NSCLC
HCC-2998 colon = test system: HCC-2998 colon
SW-620 colon = test system: SW-620 colon
UO-31 renal = test system: UO-31 renal
K-562 leukemia = test system: K-562 leukemia
HCT-116 colon = test system: HCT-116 colon
HL-60(TB) leukemia = test system: HL-60(TB) leukemia
UACC-62 melanoma = test system: UACC-62 melanoma
CAKI-1 renal = test system: CAKI-1 renal
LOX IMVI melanoma = test system: LOX IMVI melanoma
HT29 colon = test system: HT29 colon
MDA-MB-435 = test system: MDA-MB-435
EKVX NSCLC = test system: EKVX NSCLC
A498 renal = test system: A498 renal
MCF7 breast = test system: MCF7 breast
HCT-15 colon = test system: HCT-15 colon
HS 578T breast = test system: HS 578T breast
KM20L2 colon = test system: KM20L2 colon
NCI-H226 lung = test system: NCI-H226 lung
DU-145 prostate = test system: DU-145 prostate
RPMI-8226 leukemia = test system: RPMI-8226 leukemia
PC-3 prostate = test system: PC-3 prostate
BT-549 breast = test system: BT-549 breast
T-47D breast = test system: T-47D breast
SK-OV-3 ovarian = test system: SK-OV-3 ovarian
SK-MEL-2 melanoma = test system: SK-MEL-2 melanoma

For `O=S1(=O)CSc2ccc3ccccc3c2-c2c1ccc1ccccc21`, the TGI (OVCAR-5 ovarian) was greater than 100 µM, the TGI (SNB-78 CNS) was greater than 100 µM and the TGI (CCRF-CEM leukemia) was greater than 100 µM. The TGI (M19-MEL melanoma) was greater than 100 µM, the TGI (SF-295 CNS) was greater than 100 µM and the TGI (SNB-19 CNS) was greater than 100 µM. It also gave a TGI (MALME-3M melanoma) greater than 100 µM, a TGI (NCI-H522 lung) greater than 100 µM and a TGI (OVCAR-4 ovarian) greater than 100 µM. The TGI (M14 melanoma) was greater than 100 µM, the TGI (IGROV1 ovarian) was greater than 100 µM and the TGI (ACHN renal) was greater than 100 µM. The TGI (OVCAR-3 ovarian) was greater than 100 µM, the TGI (SF-268 CNS) was greater than 100 µM and the TGI (RXF-631 renal) was greater than 100 µM. It also gave a TGI (SK-MEL-5 melanoma) greater than 100 µM, a TGI (RXF 393 renal) greater than 100 µM and a TGI (HOP-18 NSCLC) greater than 100 µM. For the same compound, the TGI (SK-MEL-28 melanoma) was greater than 100 µM, the TGI (MOLT-4 leukemia) was greater than 100 µM and the TGI (NCI-H23 lung) was greater than 100 µM. It also gave a TGI (LXFL 529 NSCLC) greater than 100 µM, a TGI (COLO 205 colon) greater than 100 µM and a TGI (SR leukemia) greater than 100 µM. It also gave a TGI (786-0 renal) greater than 100 µM, a TGI (TK-10 renal) greater than 100 µM and a TGI (SF-539 CNS) greater than 100 µM. The TGI (KM12 colon) was greater than 100 µM, the TGI (OVCAR-8 ovarian) was greater than 100 µM and the TGI (DLD-1 colon) was greater than 100 µM. For the same compound, the TGI (U251 CNS) was greater than 100 µM, the TGI (SN12C renal) was greater than 100 µM and the TGI (NCI-H460 lung) was greater than 100 µM. For the same compound, the TGI (UACC-257 melanoma) was greater than 100 µM, the TGI (DMS 114 small cell lung) was greater than 100 µM and the TGI (HOP-92 NSCLC) was greater than 100 µM. It also gave a TGI (XF 498 CNS) greater than 100 µM, a TGI (SNB-75 CNS) greater than 100 µM and a TGI (A549 NSCLC) greater than 100 µM. The TGI (DMS 273 small cell lung) was greater than 100 µM, the TGI (HOP-62 NSCLC) was greater than 100 µM and the TGI (HCC-2998 colon) was greater than 100 µM. For the same compound, the TGI (SW-620 colon) was greater than 100 µM, the TGI (UO-31 renal) was greater than 100 µM and the TGI (K-562 leukemia) was greater than 100 µM. It also gave a TGI (HCT-116 colon) greater than 100 µM, a TGI (HL-60(TB) leukemia) greater than 100 µM and a TGI (UACC-62 melanoma) greater than 100 µM. For the same compound, the TGI (CAKI-1 renal) was greater than 100 µM, the TGI (LOX IMVI melanoma) was greater than 100 µM and the TGI (HT29 colon) was greater than 100 µM.
`CC(C)(C)NNc1c([N+](=O)[O-])cnn(-c2ccccc2)c1=O` gave a TGI (MDA-MB-435) of 3.27 µM, a TGI (EKVX NSCLC) of 25.6 µM and a TGI (A498 renal) greater than 100 µM. The TGI (MCF7 breast) was 14.1 µM, the TGI (OVCAR-5 ovarian) was 15.5 µM and the TGI (HCT-15 colon) was 10.1 µM. It also gave a TGI (SNB-78 CNS) of 58.7 µM, a TGI (CCRF-CEM leukemia) of 3.4 µM and a TGI (M19-MEL melanoma) of 5.61 µM. It also gave a TGI (SF-295 CNS) of 20.1 µM, a TGI (SNB-19 CNS) of 22.7 µM and a TGI (MALME-3M melanoma) of 11.1 µM. It also gave a TGI (NCI-H522 lung) of 4.72 µM, a TGI (OVCAR-4 ovarian) of 6.61 µM and a TGI (M14 melanoma) of 4.88 µM. It also gave a TGI (IGROV1 ovarian) of 38.6 µM, a TGI (ACHN renal) of 16.4 µM and a TGI (OVCAR-3 ovarian) of 5.54 µM. For the same compound, the TGI (SF-268 CNS) was 31 µM, the TGI (SK-MEL-5 melanoma) was 11.1 µM and the TGI (RXF 393 renal) was 18.1 µM. It also gave a TGI (HOP-18 NSCLC) of 32 µM, a TGI (SK-MEL-28 melanoma) of 5.79 µM and a TGI (HS 578T breast) of 26.1 µM. It also gave a TGI (MOLT-4 leukemia) of 4.91 µM, a TGI (NCI-H23 lung) of 11.1 µM and a TGI (LXFL 529 NSCLC) of 3.25 µM. For the same compound, the TGI (COLO 205 colon) was 12.6 µM, the TGI (KM20L2 colon) was 13.1 µM and the TGI (SR leukemia) was 4.67 µM. For the same compound, the TGI (786-0 renal) was 13.4 µM, the TGI (TK-10 renal) was 36.8 µM and the TGI (NCI-H226 lung) was 14.7 µM. It also gave a TGI (DU-145 prostate) of 26 µM, a TGI (RPMI-8226 leukemia) of 23.8 µM and a TGI (SF-539 CNS) of 27.1 µM. It also gave a TGI (KM12 colon) of 24.5 µM, a TGI (OVCAR-8 ovarian) of 4.74 µM and a TGI (DLD-1 colon) of 9.52 µM. The TGI (U251 CNS) was 8.05 µM, the TGI (SN12C renal) was 6.35 µM and the TGI (NCI-H460 lung) was 26.3 µM. The TGI (UACC-257 melanoma) was 11.4 µM, the TGI (PC-3 prostate) was 3.23 µM and the TGI (HOP-92 NSCLC) was 12.3 µM. For the same compound, the TGI (XF 498 CNS) was 5.22 µM, the TGI (SNB-75 CNS) was 23.8 µM and the TGI (A549 NSCLC) was 32.4 µM. It also gave a TGI (DMS 273 small cell lung) of 10.4 µM, a TGI (HOP-62 NSCLC) of 22.3 µM and a TGI (HCC-2998 colon) of 11.8 µM. For the same compound, the TGI (BT-549 breast) was 2.7 µM, the TGI (SW-620 colon) was 3.41 µM and the TGI (UO-31 renal) was 12.8 µM. For the same compound, the TGI (K-562 leukemia) was 2.02 µM, the TGI (HCT-116 colon) was 5.63 µM and the TGI (T-47D breast) was 4.36 µM. The TGI (HL-60(TB) leukemia) was 5.24 µM, the TGI (UACC-62 melanoma) was 9.39 µM and the TGI (CAKI-1 renal) was 21.1 µM. It also gave a TGI (LOX IMVI melanoma) of 3.32 µM, a TGI (SK-OV-3 ovarian) of 16 µM and a TGI (HT29 colon) of 7.43 µM.
Compound `Cc1cc(Cl)ccc1NC(=O)C1C(=O)N(c2ccc(Cl)cc2C)C(=O)/C1=N\N` (stereo not given) has a TGI (EKVX NSCLC) greater than 100 µM, a TGI (A498 renal) of 93.7 µM and a TGI (OVCAR-5 ovarian) greater than 100 µM. For the same compound, the TGI (HCT-15 colon) was greater than 100 µM, the TGI (SNB-78 CNS) was greater than 100 µM and the TGI (CCRF-CEM leukemia) was greater than 100 µM. For the same compound, the TGI (M19-MEL melanoma) was greater than 100 µM, the TGI (SF-295 CNS) was greater than 100 µM and the TGI (SNB-19 CNS) was greater than 100 µM. The TGI (MALME-3M melanoma) was greater than 100 µM, the TGI (NCI-H522 lung) was greater than 100 µM and the TGI (OVCAR-4 ovarian) was greater than 100 µM. The TGI (M14 melanoma) was greater than 100 µM, the TGI (IGROV1 ovarian) was greater than 100 µM and the TGI (ACHN renal) was greater than 100 µM. For the same compound, the TGI (OVCAR-3 ovarian) was greater than 100 µM, the TGI (SF-268 CNS) was 96.4 µM and the TGI (SK-MEL-5 melanoma) was greater than 100 µM. It also gave a TGI (RXF 393 renal) greater than 100 µM, a TGI (HOP-18 NSCLC) greater than 100 µM and a TGI (SK-MEL-28 melanoma) greater than 100 µM. It also gave a TGI (MOLT-4 leukemia) greater than 100 µM, a TGI (NCI-H23 lung) greater than 100 µM and a TGI (LXFL 529 NSCLC) greater than 100 µM. For the same compound, the TGI (COLO 205 colon) was greater than 100 µM, the TGI (KM20L2 colon) was greater than 100 µM and the TGI (SR leukemia) was greater than 100 µM. For the same compound, the TGI (786-0 renal) was greater than 100 µM, the TGI (TK-10 renal) was 99.3 µM and the TGI (NCI-H226 lung) was 93.8 µM. For the same compound, the TGI (RPMI-8226 leukemia) was greater than 100 µM, the TGI (SF-539 CNS) was greater than 100 µM and the TGI (KM12 colon) was greater than 100 µM. For the same compound, the TGI (OVCAR-8 ovarian) was greater than 100 µM, the TGI (U251 CNS) was greater than 100 µM and the TGI (SN12C renal) was greater than 100 µM. The TGI (NCI-H460 lung) was greater than 100 µM, the TGI (UACC-257 melanoma) was greater than 100 µM and the TGI (DMS 114 small cell lung) was greater than 100 µM. It also gave a TGI (SK-MEL-2 melanoma) of 90.9 µM, a TGI (HOP-92 NSCLC) greater than 100 µM and a TGI (XF 498 CNS) greater than 100 µM. For the same compound, the TGI (SNB-75 CNS) was greater than 100 µM, the TGI (A549 NSCLC) was greater than 100 µM and the TGI (HOP-62 NSCLC) was greater than 100 µM. For the same compound, the TGI (HCC-2998 colon) was 67.3 µM, the TGI (SW-620 colon) was greater than 100 µM and the TGI (UO-31 renal) was greater than 100 µM. The TGI (K-562 leukemia) was greater than 100 µM, the TGI (HCT-116 colon) was greater than 100 µM and the TGI (HL-60(TB) leukemia) was greater than 100 µM. It also gave a TGI (UACC-62 melanoma) greater than 100 µM, a TGI (CAKI-1 renal) greater than 100 µM and a TGI (LOX IMVI melanoma) greater than 100 µM. The TGI (SK-OV-3 ovarian) was greater than 100 µM and the TGI (HT29 colon) was greater than 100 µM.
